In patent publication US11466034B2, “Compound functioning as bromodomain protein inhibitor, and composition” (Betta Pharmaceuticals Co., Ltd., priority 2017, dated 2022) one finds IC50 data, which are given here for 25 molecules.

For one test, the target named is BRD4(D1) (Homo sapiens (Human), UniProt O60885). Description: Inhibitory activity against BRD4(D1), HTRF assay. Type of test: binding. As for the experimental part:
(§1) (+)-JQ1 was used as comparison compound, to evaluated the inhibitory activity of compounds of the invention against BRD4(D1) and BRD4(D2) in vitro.
(§2) The assays of BRD4 (D1) and BRD4 (D2) were conducted in a 384-well polystyrene plate. The test compounds were first serially diluted in DMSO and the test compound/DMSO were transferred to 384-well plates. The final concentration of DMSO in the assay was 0.1%. 2 volumes of protein/peptide mixture were added into 384-well plates, then 2 volumes of assay mixture were added, and shake for 30 s. The plate was incubated at room temperature for 2 h. Then the HTRF signal on EnVision was readed.
(§3) Use equation (1) to fit the date in Excel to obtain the value of the inhibition rate. Inhibition rate (%)=(maximum value−signal value)/(maximum value−minimum value)*100 Equation(1):
(§4) IC50 determination was performed by fitting the data using GraphPad Prism 5.0 software and equation (2). Y=bottom+(Top−bottom)/(1+10^((Log IC50−X)*HillSlope)); Equation(2): wherein, Y represents the percentage of inhibition (%); X represents the concentration of test compounds.
(§5) The IC50 data of the examples were provided in the following table, wherein, A stands for IC50<100 nM; B stands for IC50 is 100-300 nM; C stands for IC50>300 nM.
(In general: Time-resolved FRET reads energy transfer from a long-lived donor to a nearby acceptor.)

In another test the target is BRD4(D2) (Homo sapiens (Human), UniProt O60885). Description: Inhibitory activity against BRD4(D2), HTRF assay. Type of test: binding. As to the method:
as §1, §2, §3, §4, §5

One may read the IC50 as the midpoint of a concentration-inhibition curve. Lower therefore signals inhibition by little substance. As for `CCS(=O)(=O)Nc1cc(-c2cn(C)c(=O)c3[nH]ccc23)cc2c1nc(C)n2Cc1ccc(C(F)(F)F)cc1` [Example 42, N-(2-methyl-6-(6-methyl-7-oxo-6,7-dihydro-1H-pyrrolo[2,3-c]pyridin-4-yl)-1-(4-(trifluoromethyl)benzyl)-1H-benzo[d]imidazol-4-yl)ethanesulfonamide], the IC50 at BRD4(D1) (class symbols) and against BRD4(D2) (class symbols) was less than 100 nM in each case.

Take `CCS(=O)(=O)Nc1cc(-c2cn(C)c(=O)c3[nH]ccc23)cc2c1nc(C)n2Cc1ccc(Cl)c(C(F)(F)F)c1` [Example 50, N-(2-methyl-6-(6-methyl-7-oxo-6,7-dihydro-1H-pyrrolo[2,3-c]pyridin-4-yl)-1-(3-(trifluoromethyl)-4chlorobenzyl)-1H-benzo[d]imidazol-4-yl)ethanesulfonamide]: the IC50 at BRD4(D1) (class symbols) and on BRD4(D2) (class symbols) was less than 100 nM in each case.

In the case of `Cn1cc(-c2cnc3[nH]c(=O)n(Cc4ccc(Cl)cc4)c3c2)c2cc[nH]c2c1=O` [Example 34, 1-(4-chlorobenzyl)-6-(6-methyl-7-oxo-6,7-dihydro-1H-pyrrolo[2,3-c]pyridin-4-yl)-1,3-dihydro-2H-imidazo[4,5-b]pyridin-2-one], the IC50 on BRD4(D1) (numeric values) amounted to 107 nM; against BRD4(D2) (numeric values) it was 31 nM.

As to `CCS(=O)(=O)Nc1cc(-c2cn(C)c(=O)c3[nH]ccc23)nc2c1nc(C)n2Cc1cc(F)cc(F)c1` [Example 67, N-(3-(3,5-difluorobenzyl)-2-methyl-5-(6-methyl-7-oxo-6,7-dihydro-H-pyrrolo[2,3-c]pyridin-4-yl)-3H-imidazo[4,5-b]pyridin-7-yl)ethanesulfonamide], the IC50 against BRD4(D1) (class symbols) and against BRD4(D2) (class symbols) was less than 100 nM each time.

For the molecule `Cc1nc2ncc(-c3cn(C)c(=O)c4[nH]ccc34)nc2n1Cc1ccc(Cl)cc1F` [Example 26, 4-(1-(2-fluoro-4-chlorobenzyl)-2-methyl-H-imidazo[4,5-b]pyrazin-6-yl)-6-methyl-H-pyrrolo[2,3-c]pyridin-7(6H)-one], the IC50 against BRD4(D1) (class symbols) and at BRD4(D2) (class symbols) was less than 100 nM in each case.

For `Cc1nc2ncc(-c3cn(C)c(=O)c4[nH]ccc34)nc2n1Cc1ccc(Br)cc1` [Example 32, 4-(1-(4-bromobenzyl)-2-methyl-1H-imidazo[4,5-b]pyrazin-6-yl)-6-methyl-H-pyrrolo[2,3-c]pyridin-7(6H)-one], the IC50 against BRD4(D1) (class symbols) and at BRD4(D2) (class symbols) was less than 100 nM each time.

For `CCS(=O)(=O)Nc1cc(-c2cn(C)c(=O)c3[nH]ccc23)cc2c1nc(C)n2Cc1cc(F)cc(C(F)(F)F)c1` [Example 48, N-(2-methyl-6-(6-methyl-7-oxo-6,7-dihydro-1H-pyrrolo[2,3-c]pyridin-4-yl)-1-(3-fluoro-5-(trifluoromethyl)benzyl)-1H-benzo[d]imidazol-4-yl)ethanesulfonamide], the IC50 against BRD4(D1) (class symbols) and against BRD4(D2) (class symbols) was less than 100 nM throughout.

Turning to `COc1ccc(Cn2c(C)nc3ncc(-c4cn(C)c(=O)c5[nH]ccc45)cc32)cc1` [Example 2, 4-(1-(4-methoxybenzyl)-2-methyl-1H-imidazo[4,5-b]pyridin-6-yl)-6-methyl-1H-pyrrolo[2,3-c]pyridin-7(6H)-one], the values for the IC50 at BRD4(D1) (numeric values) and against BRD4(D2) (numeric values) were 10.4 nM and 3 nM, respectively.

Take `CCS(=O)(=O)Nc1cc(-c2cn(C)c(=O)c3[nH]ccc23)nc2c1ncn2Cc1cc(F)cc(F)c1` [Example 62, N-(3-(3,5-difluorobenzyl)-5-(6-methyl-7-oxo-6,7-dihydro-H-pyrrolo[2,3-c]pyridin-4-yl)-3H-imidazo[4,5-b]pyridin-7-yl)ethanesulfonamide]: the IC50 on BRD4(D1) (numeric values) was 1.3 nM; against BRD4(D2) (numeric values) it was 1.2 nM.

For `Cn1cc(-c2cnc3ccn(Cc4c(Cl)cccc4Cl)c3c2)c2cc[nH]c2c1=O` [Example 36, 4-(1-(2,6-dichlorobenzyl)-1H-pyrrolo[3,2-b]pyridin-6-yl)-6-methyl-1,6-dihydro-7H-pyrrolo[2,3-c]pyridin-7-one], the IC50 is 15 nM against BRD4(D1) (numeric values) and 2.9 nM against BRD4(D2) (numeric values).

For `Cc1nc2ncc(-c3cn(C)c(=O)c4[nH]ccc34)cc2n1Cc1ccccc1` [Example 6, 4-(1-benzyl-2-methyl-1H-imidazo[4,5-b]pyridin-6-yl)-6-methyl-1H-pyrrolo[2,3-c]pyrid in-7(6H)one], the IC50 against BRD4(D1) (numeric values) came out at 7.6 nM; at BRD4(D2) (numeric values), 2.8 nM.

Take `Cc1[nH]c2ncc(-c3cn(C)c(=O)c4[nH]ccc34)cc2c1C(C)c1c(Cl)ccc(F)c1Cl` (stereo not shown) [Example 35, 4-(3-(1-(2,6-dichloro-3-fluorophenyl)ethyl)-2-methyl-1H-pyrrolo[2,3-b]pyridin-5-yl)-6-methyl-1,6-dihydro-7H-pyrrolo[2,3-c]pyridin-7-one]: the IC50 was found to be 45.1 nM against BRD4(D1) (numeric values) and 5.3 nM against BRD4(D2) (numeric values).

In the case of `CCS(=O)(=O)Nc1cc(-c2cn(C)c(=O)c3[nH]ccc23)cc2c1nc(C)n2Cc1ccc(Cl)cc1F` [Example 49, N-(2-methyl-6-(6-methyl-7-oxo-6,7-dihydro-1H-pyrrolo[2,3-c]pyridin-4-yl)-1-(2-fluoro-4-chlorobenzyl)-1H-benzo[d]imidazol-4-yl)ethanesulfonamide], the IC50 on BRD4(D1) (class symbols) and against BRD4(D2) (class symbols) was less than 100 nM in each case.

Take `Cc1nc2ncc(-c3cn(C)c(=O)c4[nH]ccc34)nc2n1Cc1ccc(S(C)(=O)=O)cc1` [Example 33, 6-methyl-4-(2-methyl-1-(4-(methylsulfonyl)benzyl)-1H-imidazo[4,5-b]pyrazin-6-yl)-1H-pyrrolo[2,3-c]pyridin-7(6H)-one]: the IC50 against BRD4(D1) (class symbols) and against BRD4(D2) (class symbols) was less than 100 nM in each case.

As for `CCS(=O)(=O)Nc1cc(-c2cn(C)c(=O)c3[nH]ccc23)nc2c1nc(C)n2Cc1c(C)cccc1C` [Example 68, N-(3-(2,6-dimethylbenzyl)-2-methyl-5-(6-methyl-7-oxo-6,7-dihydro-1H-pyrrolo[2,3-c]pyridin-4-yl)-3H-imidazo[4,5-b]pyridin-7-yl)ethanesulfonamide], the IC50 on BRD4(D1) (class symbols) and on BRD4(D2) (class symbols) was less than 100 nM throughout.

Consider `Cc1nc2ncc(-c3cn(C)c(=O)c4[nH]ccc34)nc2n1C(C)c1ccc(Cl)cc1` (stereo not shown) [Example 21, 4-(1-(1-(4-chlorophenyl)ethyl)-2-methyl-1H-imidazo[4,5-b]pyrazin-6-yl)-6-methyl-1,6-dihydro-7H-pyrrolo[2,3-c]pyridin-7-one], for which the IC50 was 6.1 nM against BRD4(D1) (numeric values) and 1.8 nM against BRD4(D2) (numeric values).

Take `Cc1nc2ncc(-c3cn(Cc4cccnc4)c(=O)c4[nH]ccc34)cc2n1Cc1ccc(Cl)cc1` [Example 17, 4-(1-(4-chlorobenzyl)-2-methyl-1H-imidazo[4,5-b]pyridin-6-yl)-6-(pyridin-3-ylmethyl)-1,6-dihydro-7H-pyrrolo[2,3-c]pyridin-7-one]: the IC50 at BRD4(D1) (class symbols) and at BRD4(D2) (class symbols) was greater than 300 nM throughout.

With `Cc1nc2ncc(-c3cn(C)c(=O)c4[nH]ccc34)nc2n1Cc1ccc(C(F)(F)F)c(Cl)c1` [Example 29, 4-(1-(3-chloro-4-trifluoromethylbenzyl)-2-methyl-1H-imidazo[4,5-b]pyrazin-6-yl)-6-methyl-1H-pyrrolo[2,3-c]pyridin-7(6H)-one], the IC50 on BRD4(D1) (class symbols) and against BRD4(D2) (class symbols) was less than 100 nM in each case.

Take `COc1ccc(Cn2c(C)nc3ncc(-c4cn(Cc5ccn[nH]5)c(=O)c5[nH]ccc45)cc32)cc1` [Example 15, 4-(1-(4-methoxybenzyl)-2-methyl-1H-imidazo[4,5-b]pyridin-6-yl)-6-(pyrazol-2-methyl)-1,6-dihydro-7H-pyrrolo[2,3-c]pyridin-7-one]: the results for the IC50 against BRD4(D1) (class symbols) and on BRD4(D2) (class symbols) were greater than 300 nM and 100 to 300 nM, respectively.

Take `CCS(=O)(=O)Nc1cc(-c2cn(C)c(=O)c3[nH]ccc23)nc2c1ncn2Cc1cc(C(F)(F)F)ccc1F` [Example 61, N-(3-(2-fluoro-5-(trifluoromethyl)benzyl)-5-(6-methyl-7-oxo-6,7-dihydro-H-pyrrolo[2,3-c]pyridin-4-yl)-3H-imidazo[4,5-b]pyridin-7-yl)ethanesulfonamide]: the IC50 against BRD4(D1) (class symbols) and at BRD4(D2) (class symbols) was less than 100 nM each time.

Turning to `CCS(=O)(=O)Nc1cc(-c2cn(C)c(=O)c3[nH]ccc23)cc2c1nc(C)n2Cc1ccccc1` [Example 45, N-(1-benzyl-2-methyl-6-(6-methyl-7-oxo-6,7-dihydro-1H-pyrrolo[2,3-c]pyridin-4-yl)-1H-benzo[d]imidazol-4-yl)ethanesulfonamide], the IC50 at BRD4(D1) (class symbols) and on BRD4(D2) (class symbols) was less than 100 nM in each case.

As to `COc1ccc(Cn2c(C)nc3ncc(-c4cn(CC(C)C)c(=O)c5[nH]ccc45)cc32)cc1` [Example 11, 6-isobutyl-4-(1-(4-methoxybenzyl)-2-methyl-1H-imidazo[4,5-b]pyridin-6-yl)-1,6-dihydro-7H-pyrrolo[2,3-c]pyridin-7-one], the IC50 is greater than 300 nM on BRD4(D1) (class symbols) and 100 to 300 nM against BRD4(D2) (class symbols).

Regarding `Cc1nc2ncc(-c3cn(C)c(=O)c4[nH]ccc34)cc2[nH]1` [Example 8, 6-methyl-4-(2-methyl-1H-imidazo[4,5-b]pyridin-6-yl)-1,6-dihydro-7H-pyrrolo[2,3-c]pyridin-7-one], the IC50 on BRD4(D1) (numeric values) turned out to be 39.9 nM; on BRD4(D2) (numeric values), 6 nM.

As to `CCS(=O)(=O)Nc1cc(-c2cn(C)c(=O)c3[nH]ccc23)cc2c1nc(C)n2Cc1ccc(Br)cc1` [Example 55, N-(2-methyl-6-(6-methyl-7-oxo-6,7-dihydro-1H-pyrrolo[2,3-c]pyridin-4-yl)-1-(4-bromobenzyl)-1H-benzo[d]imidazol-4-yl)ethanesulfonamide], the IC50 at BRD4(D1) (class symbols) and on BRD4(D2) (class symbols) was less than 100 nM throughout.

In turn, (+)-JQ1 [reference compound] came in with an IC50 against BRD4(D1) (numeric values) of 16 nM.
